Measurements: patent publication US10947210B2 (priority 2015, dated 2021)
Read-outs that look alike come from different tables or passages of the source.

Legend:
[1] = target: HCV RNA-dependent RNA polymerase (NS5B) (Hepatitis C virus genotype 1b (isolate BK) (HCV), UniProt P26663); experiment: RNA-Dependent RNA HCV NS5B (polymerase) Assay and IC50 Determination; format: biochemical; conditions: purified HCV NS5B polymerase, polyA:U16 substrate, 32P-UTP incorporation
Procedure, shortened: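 Purified NS5B was incubated with 0.5 uM polyA:U16, 10 μM UTP plus ^32P-UTP in 50 mM Hepes-KOH pH 7.5, 5 mM MgCl2, 5 mM DTT, 2% glycerol and 0.01% Triton X-100. Inhibitor reactions ran 60 min at 37° C, and radiolabelled RNA product was quantified after filter capture. IC50 values were obtained from concentration series.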

[2] = test system: HCV subgenomic RNA replicon in Huh-luc/neo-ET cells; experiment: HCV Replicon Assay and EC50 Determination; format: cell-based; conditions: Hepatitis C virus, 72 hours, luciferase reporter activity
Protocol: HCV Replicon Assay and EC50 Determination.
HCV replicon assay is based on the luciferase reporter cell line (Huh-luc/neo-ET). This reporter cell line is a human liver carcinoma cell line (Huh-7) stably transfected with an autonomously replicating bicistronic HCV subgenomic RNA replicon (Lohmann et al., 1999, Science, 285, 110-113). Inhibition of HCV RNA replication was monitored through analysis of reporter luciferase activity. Briefly, HCV replicon cells were incubated with inhibitors for 72 hours at 37° C. After the incubation, duplicate plates were treated and incubated in parallel for assessment of cellular toxicity by XTT staining and anti-HCV activity by measurement of luciferase reporter activity. Either human interferon alpha 2B or ribavirin was used as a reference compound. EC50 values were determined using GraFit (Erithaus software) or Excel.
Table 2 presents EC50 data obtained using this HCV replicaon assay to test representative compounds. Data are presented as follows: “+++” means <0.1 μM; “++” means ≥0.1 μM and <1.0 μM; “+” means ≥1.0 μM.

Sequence of HCV RNA-dependent RNA polymerase (NS5B) (P26663 2420-3010): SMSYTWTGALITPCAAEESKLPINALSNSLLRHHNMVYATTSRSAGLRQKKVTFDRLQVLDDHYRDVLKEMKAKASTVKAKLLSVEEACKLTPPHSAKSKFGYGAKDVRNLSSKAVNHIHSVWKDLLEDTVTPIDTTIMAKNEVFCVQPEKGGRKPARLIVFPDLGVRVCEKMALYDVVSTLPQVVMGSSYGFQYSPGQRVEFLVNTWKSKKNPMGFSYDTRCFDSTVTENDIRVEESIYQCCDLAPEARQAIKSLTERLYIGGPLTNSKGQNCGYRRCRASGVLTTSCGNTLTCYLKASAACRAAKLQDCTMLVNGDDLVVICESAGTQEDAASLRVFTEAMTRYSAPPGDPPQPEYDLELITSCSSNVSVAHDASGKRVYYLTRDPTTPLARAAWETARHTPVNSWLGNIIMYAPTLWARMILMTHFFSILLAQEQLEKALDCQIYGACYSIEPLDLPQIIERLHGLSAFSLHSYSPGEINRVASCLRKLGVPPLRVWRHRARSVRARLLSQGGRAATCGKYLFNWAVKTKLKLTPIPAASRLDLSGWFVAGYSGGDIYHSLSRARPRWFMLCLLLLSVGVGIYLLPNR

| SMILES | IC50 ([1]; read-out: IC50) [µM] | EC50 [2] [nM] | IC50 ([1]; IC50 (μM)) [µM] |
| --- | --- | --- | --- |
| CNC(=O)c1c(-c2ccc(F)cc2)oc2cc(N(CCOCCOCc3ccc(F)c(C(=O)O)c3)S(C)(=O)=O)c(C3CC3)cc12 [Compound 17A-8A, 5-[2-(2-{[5-Cyclopropyl-2-(4-fluoro-phenyl)-3-methylcarbamoyl-benzofuran-6-yl]-methanesulfonyl-amino}-ethoxy)-ethoxymethyl]-2-fluoro-benzoic Acid] | 0.1 to 1 | < 100 |  |
| CNC(=O)c1c(-c2ccc(F)cc2)oc2cc(N(CC(=O)NC(C)(C)C(=O)NCc3cccc(C(=O)C=C(O)C(=O)O)c3)S(C)(=O)=O)c(C3CC3)cc12 [Compound 09-14C, 4-(3-{[2-(2-{[5-Cyclopropyl-2-(4-fluoro-phenyl)-3-methylcarbamoyl-benzofuran-6-yl]-methanesulfonyl-amino}-acetylamino)-2-methyl-propionylamino]-methyl}-phenyl)-2-hydroxy-4-oxo-but-2-enoic Acid] | > 1 | 100 to 1000 |  |
| CNC(=O)c1c(-c2ccc(F)cc2)oc2cc(N(CCOC(=O)CNC(=O)CCCC(=O)O)S(C)(=O)=O)c(C3CC3)cc12 [Compound 08-6, 4-[(2-{[5-Cyclopropyl-2-(4-fluoro-phenyl)-3-methylcarbamoyl-benzofuran-6-yl]-methanesulfonyl-amino}-ethoxycarbonylmethyl)-carbamoyl]-butyric Acid] |  | 100 to 1000 | 0.1 to 1 |
| CNC(=O)c1c(-c2ccc(F)cc2)oc2cc(N(CC(=O)NC(C)C(=O)NCc3cccc(C(=O)C=C(O)C(=O)O)c3)S(C)(=O)=O)c(C3CC3)cc12 (stereo not shown) [Compound 09-14F, 4-(3-{[2-(2-{[5-Cyclopropyl-2-(4-fluoro-phenyl)-3-methylcarbamoyl-benzofuran-6-yl]-methanesulfonyl-amino}-acetylamino)-propionylamino]-methyl}-phenyl)-2-hydroxy-4-oxo-but-2-enoic Acid] | > 1 | 100 to 1000 |  |
| CNC(=O)c1c(-c2ccc(F)cc2)oc2cc(N(CCOCCOCc3ccc(C(=O)O)cc3)S(C)(=O)=O)c(C3CC3)cc12 [Compound 06-7B, 4-[2-(2-{[5-Cyclopropyl-2-(4-fluoro-phenyl)-3-methylcarbamoyl-benzofuran-6-yl]-methanesulfonyl-amino}-ethoxy)-ethoxymethyl]-benzoic Acid] | 0.1 to 1 | 100 to 1000 |  |
| CNC(=O)c1c(-c2ccc(F)cc2)oc2cc(N(CCOCCOCCOC(C(=O)O)c3ccccc3)S(C)(=O)=O)c(C3CC3)cc12 (stereo not shown) [Compound 25-5, {2-[2-(2-{[5-Cyclopropyl-2-(4-fluoro-phenyl)-3-methylcarbamoyl-benzofuran-6-yl]-methanesulfonyl-amino}-ethoxy)-ethoxy]-ethoxy}-phenyl-acetic Acid] | 0.1 to 1 | 100 to 1000 |  |
| CNC(=O)c1c(-c2ccc(F)cc2)oc2cc(N(CCOCCOCc3ccccc3C(=O)O)S(C)(=O)=O)c(C3CC3)cc12 [Compound 06-7A, 2-[2-(2-{[5-Cyclopropyl-2-(4-fluoro-phenyl)-3-methylcarbamoyl-benzofuran-6-yl]-methanesulfonyl-amino}-ethoxy)-ethoxymethyl]-benzoic Acid] | 0.1 to 1 | < 100 |  |
| CNC(=O)c1c(-c2ccc(F)cc2)oc2cc(N(CCOCCOCc3ccc(OC)c(C(=O)O)c3)S(C)(=O)=O)c(C3CC3)cc12 [Compound 17B-8, 5-[2-(2-{[5-Cyclopropyl-2-(4-fluoro-phenyl)-3-methylcarbamoyl-benzofuran-6-yl]-methanesulfonyl-amino}-ethoxy)-ethoxymethyl]-2-methoxy-benzoic Acid] | 0.1 to 1 | 100 to 1000 |  |
| CCOC(=O)c1ccc(OCCOCCOCCN(c2cc3oc(-c4ccc(F)cc4)c(C(=O)NC)c3cc2C2CC2)S(C)(=O)=O)cc1 [Compound 14-6C, 4-{2-[2-(2-{[5-Cyclopropyl-2-(4-fluoro-phenyl)-3-methylcarbamoyl-benzofuran-6-yl]-methanesulfonyl-amino}-ethoxy)-ethoxy]-ethoxy}-benzoic Acid Ethyl Ester] | > 1 |  |  |
| CCOC(=O)CCOCCOCCOCCN(c1cc2oc(-c3ccc(F)cc3)c(C(=O)NC)c2cc1C1CC1)S(C)(=O)=O [Compound 30-3, 3-{2-[2-(2-{[5-Cyclopropyl-2-(4-fluoro-phenyl)-3-methylcarbamoyl-benzofuran-6-yl]-methanesulfonyl-amino}-ethoxy)-ethoxy]-ethoxy}-propionic acid ethyl ester] | > 1 |  |  |
| CNC(=O)c1c(-c2ccc(F)cc2)oc2cc(N(CCOCCCCCOC(C)C(=O)O)S(C)(=O)=O)c(C3CC3)cc12 (stereo not shown) [Compound 27-9B, 2-[5-(2-{[5-Cyclopropyl-2-(4-fluoro-phenyl)-3-methylcarbamoyl-benzofuran-6-yl]-methanesulfonyl-amino}-ethoxy)-pentyloxy]-propionic Acid] | 0.1 to 1 |  |  |
| CNC(=O)c1c(-c2ccc(F)cc2)oc2cc(N(CCOCCOCc3ccc(C(=O)O)c([N+](=O)[O-])c3)S(C)(=O)=O)c(C3CC3)cc12 [Compound 29-8, 4-[2-(2-{[5-Cyclopropyl-2-(4-fluoro-phenyl)-3-methylcarbamoyl-benzofuran-6-yl]-methanesulfonyl-amino}-ethoxy)-ethoxymethyl]-2-nitro-benzoic Acid] | 0.1 to 1 |  |  |
| CNC(=O)c1c(-c2ccc(F)cc2)oc2cc(N(CCOCCOCCOCCOCc3cccc(C(=O)O)c3)S(C)(=O)=O)c(C3CC3)cc12 [Compound 30-4, 3-(2-{2-[2-(2-{[5-Cyclopropyl-2-(4-fluoro-phenyl)-3-methylcarbamoyl-benzofuran-6-yl]-methanesulfonyl-amino}-ethoxy)-ethoxy]-ethoxy}-ethoxymethyl)-benzoic acid] | > 1 |  |  |
| CNC(=O)c1c(-c2ccc(F)cc2)oc2cc(N(CCOCCOCCOCc3ccccc3C(=O)OC)S(C)(=O)=O)c(C3CC3)cc12 [Compound 06-6D, 2-{2-[2-(2-{[5-Cyclopropyl-2-(4-fluoro-phenyl)-3-methylcarbamoyl-benzofuran-6-yl]-methanesulfonyl-amino}-ethoxy)-ethoxy]-ethoxymethyl}-benzoic acid methyl ester] | 0.1 to 1 |  |  |
| CNC(=O)c1c(-c2ccc(F)cc2)oc2cc(N(CCOCCOCc3ccc(C(=O)OC)cc3)S(C)(=O)=O)c(C3CC3)cc12 [Compound 06-6B, 4-[2-(2-{[5-Cyclopropyl-2-(4-fluoro-phenyl)-3-methylcarbamoyl-benzofuran-6-yl]-methanesulfonyl-amino}-ethoxy)-ethoxymethyl]-benzoic Acid Methyl Ester] | > 1 |  |  |
| CNC(=O)c1c(-c2ccc(F)cc2)oc2cc(N(CCOCCOCCOCCOCCOCCOCc3ccc(C(=O)/C=C(\O)C(=O)O)cc3)S(C)(=O)=O)c(C3CC3)cc12 [Compound 02-10J, 4-(4-{2-[2-(2-{2-[2-(2-{[5-Cyclopropyl-2-(4-fluoro-phenyl)-3-methylcarbamoyl-benzofuran-6-yl]-methanesulfonyl-amino}-ethoxy)-ethoxy]-ethoxy}-ethoxy)-ethoxy]-ethoxymethyl}-phenyl)-2-hydroxy-4-oxo-but-2-enoic Acid] | > 1 |  |  |
| CCOC(=O)c1ccc(COCCOCCN(c2cc3oc(-c4ccc(F)cc4)c(C(=O)NC)c3cc2C2CC2)S(C)(=O)=O)c2ccccc12 [Compound 20-7, 4-[2-(2-{[5-Cyclopropyl-2-(4-fluoro-phenyl)-3-methylcarbamoyl-benzofuran-6-yl]-methanesulfonyl-amino}-ethoxy)-ethoxymethyl]-naphthalene-1-carboxylic Acid Ethyl Ester] | 0.1 to 1 |  |  |
